According to ChEMBL document CHEMBL1201862, “PubChem BioAssay data set” (2004):
Values joined by “and” are separate entries in the source; they are usually repeats but may differ in a detail not shown here. Equal values may be shown once.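 48-hour exposure; five concentrations; linearly interpolated endpoints. At the GI50, growth is halved.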 Active and inactive are the calls of the source. Rule as the data show it: active = GI50 up to about 1.1 µM and inactive = higher.

Assays:
Test in all cases: growth of human tumour cells (NCI), 48 h
SW-620 = tested on: SW-620
MCF7 = tested on: MCF7
U-251 = tested on: U-251
A498 = tested on: A498
CAKI-1 = tested on: CAKI-1
CCRF-CEM = tested on: CCRF-CEM
Hs-578T = tested on: Hs-578T
ACHN = tested on: ACHN
BT-549 = tested on: BT-549
786-0 = tested on: 786-0
HOP-92 = tested on: HOP-92
HL-60 = tested on: HL-60
SK-MEL-2 = tested on: SK-MEL-2
HCC 2998 = tested on: HCC 2998
HCT-116 = tested on: HCT-116
T47D = tested on: T47D
SR = tested on: SR
HCT-15 = tested on: HCT-15
NCI-H460 = tested on: NCI-H460
HT-29 = tested on: HT-29
LOX IMVI = tested on: LOX IMVI
NCI/ADR-RES = tested on: NCI/ADR-RES
IGROV-1 = tested on: IGROV-1
MDA-N = tested on: MDA-N
Malme-3M = tested on: Malme-3M
MOLT-4 = tested on: MOLT-4
DU-145 = tested on: DU-145
KM12 = tested on: KM12
EKVX = tested on: EKVX
OVCAR-8 = tested on: OVCAR-8
NCI-H522 = tested on: NCI-H522
PC-3 = tested on: PC-3
SNB-19 = tested on: SNB-19
OVCAR-5 = tested on: OVCAR-5
COLO 205 = tested on: COLO 205
A549 = tested on: A549
SF-295 = tested on: SF-295
SK-MEL-5 = tested on: SK-MEL-5
HOP-62 = tested on: HOP-62
M14 = tested on: M14
UACC-62 = tested on: UACC-62
K562 = tested on: K562
UACC-257 = tested on: UACC-257
SF-539 = tested on: SF-539
SK-OV-3 = tested on: SK-OV-3
OVCAR-4 = tested on: OVCAR-4
MDA-MB-435 = tested on: MDA-MB-435
RPMI-8226 = tested on: RPMI-8226
UO-31 = tested on: UO-31
NCI-H23 = tested on: NCI-H23
SK-MEL-28 = tested on: SK-MEL-28
SF-268 = tested on: SF-268
OVCAR-3 = tested on: OVCAR-3

For `CC(=O)NC1(C(=O)N[C@@H](Cc2ccccc2)C(=O)NC2CCCCC2)Cc2ccc3ccccc3c2-c2c(ccc3ccccc23)C1`, which GI50 (SW-620) is on record?
Its GI50 is 17.8 µM (inactive) and 25.3 µM (inactive).

What about the GI50 (MCF7) of the same molecule?
Its GI50 is 3.03 µM (inactive) and 5.48 µM (inactive).

And the GI50 (U-251)?
Its GI50 is 9.53 µM (inactive) and 5.89 µM (inactive).

What about the GI50 (A498) of the same molecule?
Its GI50 is 14.6 µM (inactive) and 21.2 µM (inactive).

What about the GI50 (CAKI-1) of the same molecule?
Its GI50 is 26.7 µM (inactive) and 15.6 µM (inactive).

And the GI50 (CCRF-CEM)?
The GI50 was 5.18 µM (inactive) and 3.47 µM (inactive).

What about the GI50 (Hs-578T) of the same molecule?
Its GI50 is > 100000 nM (inactive).

What about the GI50 (ACHN) of the same molecule?
The GI50 was 4.06 µM (inactive) and 7.73 µM (inactive).

And the GI50 (BT-549)?
The GI50 was 8.97 µM (inactive) and 15.2 µM (inactive).

And the GI50 (786-0)?
Its GI50 is 8.95 µM (inactive) and 8.73 µM (inactive).

What about the GI50 (HOP-92) of the same molecule?
The GI50 was 48.6 µM (inactive) and 32 µM (inactive).

And the GI50 (HL-60)?
Its GI50 is 5.02 µM (inactive) and 3.49 µM (inactive).

What about the GI50 (SK-MEL-2) of the same molecule?
The GI50 was 15.3 µM (inactive) and 7.89 µM (inactive).

What about the GI50 (HCC 2998) of the same molecule?
Its GI50 is 6.73 µM (inactive) and 4.54 µM (inactive).

And the GI50 (HCT-116)?
The GI50 was 4.48 µM (inactive) and 6.7 µM (inactive).

And the GI50 (T47D)?
The GI50 was 4.55 µM (inactive) and 5.27 µM (inactive).

And the GI50 (SR)?
The GI50 was 14.7 µM (inactive) and 12.6 µM (inactive).

What about the GI50 (HCT-15) of the same molecule?
The GI50 was 6610 nM and 3900 nM.

What about the GI50 (NCI-H460) of the same molecule?
Its GI50 is 6.17 µM (inactive) and 3.41 µM (inactive).

And the GI50 (HT-29)?
Its GI50 is 6.37 µM (inactive) and 4.84 µM (inactive).

What about the GI50 (LOX IMVI) of the same molecule?
Its GI50 is 53.2 µM (inactive) and 50.5 µM (inactive).

What about the GI50 (NCI/ADR-RES) of the same molecule?
The GI50 was 3.94 µM (inactive) and 6.82 µM (inactive).

Which GI50 (IGROV-1) does the source give for `CCCCCCc1cc2cc(C(=O)Nc3ccc(F)cc3)c(=N)oc2cc1O` here?
Its GI50 is 1490 nM (inactive).

And the GI50 (SW-620)?
The GI50 was 3.25 µM (inactive).

What about the GI50 (MDA-N) of the same molecule?
The GI50 was 3570 nM (inactive).

And the GI50 (Malme-3M)?
Its GI50 is 2320 nM (inactive).

And the GI50 (MOLT-4)?
The GI50 was 1930 nM (inactive).

What about the GI50 (MCF7) of the same molecule?
Its GI50 is 3.09 µM (inactive).

And the GI50 (U-251)?
Its GI50 is 2.45 µM (inactive).

What about the GI50 (DU-145) of the same molecule?
The GI50 was 2710 nM (inactive).

What about the GI50 (A498) of the same molecule?
The GI50 was 5.05 µM (inactive).

And the GI50 (CAKI-1)?
Its GI50 is 3.09 µM (inactive).

And the GI50 (KM12)?
The GI50 was 2920 nM (inactive).

What about the GI50 (CCRF-CEM) of the same molecule?
The GI50 was 1.35 µM (inactive).

And the GI50 (EKVX)?
The GI50 was 3270 nM (inactive).

And the GI50 (OVCAR-8)?
The GI50 was 1580 nM (inactive).

And the GI50 (NCI-H522)?
The GI50 was 655 nM (active).

What about the GI50 (PC-3) of the same molecule?
The GI50 was 3370 nM (inactive).

And the GI50 (SNB-19)?
Its GI50 is 2980 nM (inactive).

And the GI50 (OVCAR-5)?
Its GI50 is 16000 nM (inactive).

And the GI50 (COLO 205)?
Its GI50 is 30800 nM (inactive).

And the GI50 (A549)?
The GI50 was 3210 nM (inactive).

What about the GI50 (SF-295) of the same molecule?
Its GI50 is 3960 nM (inactive).

And the GI50 (SK-MEL-5)?
The GI50 was 1400 nM (inactive).

What about the GI50 (HOP-62) of the same molecule?
The GI50 was 3280 nM (inactive).

And the GI50 (Hs-578T)?
Its GI50 is 900 nM (active).

What about the GI50 (M14) of the same molecule?
Its GI50 is 2920 nM (inactive).

What about the GI50 (ACHN) of the same molecule?
The GI50 was 2.89 µM (inactive).

What about the GI50 (BT-549) of the same molecule?
The GI50 was 2.66 µM (inactive).

What about the GI50 (786-0) of the same molecule?
The GI50 was 3.63 µM (inactive).

What about the GI50 (UACC-62) of the same molecule?
The GI50 was 1920 nM (inactive).

What about the GI50 (K562) of the same molecule?
The GI50 was 1180 nM (inactive).

What about the GI50 (UACC-257) of the same molecule?
Its GI50 is 3370 nM (inactive).

And the GI50 (HL-60)?
Its GI50 is 1.96 µM (inactive).

And the GI50 (SK-MEL-2)?
The GI50 was 3.13 µM (inactive).

What about the GI50 (SF-539) of the same molecule?
Its GI50 is 2170 nM (inactive).

And the GI50 (SK-OV-3)?
The GI50 was 2580 nM (inactive).

What about the GI50 (HCC 2998) of the same molecule?
The GI50 was 5.37 µM (inactive).

What about the GI50 (HCT-116) of the same molecule?
The GI50 was 2.51 µM (inactive).

What about the GI50 (SR) of the same molecule?
The GI50 was 2.62 µM (inactive).

And the GI50 (OVCAR-4)?
Its GI50 is 2520 nM (inactive).

What about the GI50 (MDA-MB-435) of the same molecule?
The GI50 was 2920 nM (inactive).

What about the GI50 (HCT-15) of the same molecule?
The GI50 was 2510 nM.

And the GI50 (NCI-H460)?
Its GI50 is 3.51 µM (inactive).

And the GI50 (RPMI-8226)?
The GI50 was 1170 nM (inactive).

What about the GI50 (UO-31) of the same molecule?
The GI50 was 3360 nM (inactive).

And the GI50 (HT-29)?
Its GI50 is 28 µM (inactive).

And the GI50 (NCI-H23)?
Its GI50 is 1780 nM (inactive).

And the GI50 (SK-MEL-28)?
The GI50 was 3270 nM (inactive).

What about the GI50 (LOX IMVI) of the same molecule?
Its GI50 is 2.08 µM (inactive).

And the GI50 (SF-268)?
Its GI50 is 735 nM (active).

And the GI50 (NCI/ADR-RES)?
Its GI50 is 2.67 µM (inactive).

And the GI50 (OVCAR-3)?
Its GI50 is 3480 nM (inactive).
